SMILES strings stand for the structures.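 Briefly, cells in 96-well plates were exposed to five compound concentrations for 48 h, and endpoints were estimated by linear interpolation. GI50: concentration for 50% inhibition of growth. TGI is the concentration that stops growth completely.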

Among the test systems are MDA-MB-231 breast; HCC-2998 colon; UACC-62 melanoma; DU-145 prostate; SF-268 CNS; SK-MEL-28 melanoma; IGROV1 ovarian; NCI-H23 lung; CCRF-CEM leukemia; OVCAR-4 ovarian.
Common to all, as to experiment: growth of human tumour cells (NCI), 48 h

Take `COc1cc2c(NCCCCCCO[N+](=O)[O-])ncnc2c(OC)c1OC`: the TGI is 38 µM with MDA-MB-231 breast; 17.2 µM with HCC-2998 colon; 43.6 µM in the assay with UACC-62 melanoma; 72.2 µM in the assay on DU-145 prostate; greater than 100 µM in the assay on SF-268 CNS; greater than 83 µM in the assay with SK-MEL-28 melanoma. Moreover, the TGI in the assay on IGROV1 ovarian is greater than 84.4 µM; with NCI-H23 lung it was 59.6 µM; with CCRF-CEM leukemia it was 67.8 µM; with OVCAR-4 ovarian, greater than 100 µM.
With `Clc1cccc(NC=Nc2ccc(-c3nc4ccccc4s3)cc2)c1`, the GI50 with MDA-MB-231 breast was 9.72 µM; in the assay with HCC-2998 colon, 16 µM; with UACC-62 melanoma, 13 µM; in the assay on DU-145 prostate, 16.4 µM; in the assay on SF-268 CNS it was 10.6 µM; with SK-MEL-28 melanoma it was 0.143 µM. The GI50 in the assay with IGROV1 ovarian is 11.3 µM; in the assay with NCI-H23 lung, 16.1 µM; in the assay on CCRF-CEM leukemia, 10.5 µM. In addition, the TGI with MDA-MB-231 breast came to 23.6 µM; in the assay on HCC-2998 colon, 42.5 µM; in the assay on UACC-62 melanoma, 38.1 µM; in the assay with DU-145 prostate it was 38.8 µM; in the assay with SF-268 CNS, 46.4 µM; in the assay with SK-MEL-28 melanoma, 18.4 µM. Also, the TGI is 24.3 µM in the assay with IGROV1 ovarian, 48.1 µM in the assay on NCI-H23 lung and 25.4 µM in the assay on CCRF-CEM leukemia.
`CN1CCN(Cc2ccc(NC(=O)c3cncc(C#Cc4cnc(N)c5ccccc45)c3)cc2C(F)(F)F)CC1`: the GI50 with MDA-MB-231 breast is 0.369 µM; with HCC-2998 colon it was 0.42 µM; with UACC-62 melanoma, 0.587 µM; in the assay with DU-145 prostate, 0.213 µM; in the assay on SF-268 CNS it was 0.321 µM; with SK-MEL-28 melanoma, 0.513 µM. Moreover, the GI50 was 0.127 µM in the assay on IGROV1 ovarian, 0.41 µM in the assay with NCI-H23 lung, 0.125 µM with CCRF-CEM leukemia and 0.117 µM in the assay on OVCAR-4 ovarian. Besides, the TGI in the assay on MDA-MB-231 breast was determined as 0.82 µM; in the assay with HCC-2998 colon, 0.878 µM; with UACC-62 melanoma, 1.16 µM; in the assay on DU-145 prostate, 0.678 µM; in the assay on SF-268 CNS it was 0.832 µM; in the assay with SK-MEL-28 melanoma, 0.988 µM. Also, the TGI in the assay on IGROV1 ovarian is 0.615 µM; with NCI-H23 lung, 0.963 µM; with CCRF-CEM leukemia, 1.44 µM; with OVCAR-4 ovarian, 0.738 µM.
As for `CN(C)S(=O)(=O)Nc1ccccn1`, the TGI in the assay with MDA-MB-231 breast, with HCC-2998 colon, in the assay with UACC-62 melanoma, in the assay on DU-145 prostate, with SF-268 CNS and in the assay on SK-MEL-28 melanoma was greater than 100 µM in each case. Besides, the TGI in the assay with IGROV1 ovarian, in the assay on NCI-H23 lung and in the assay with OVCAR-4 ovarian was greater than 100 µM throughout.
`O=C1CSC(N2CCN(c3cccc(Cl)c3)CC2)=N1`: the GI50 in the assay with MDA-MB-231 breast, in the assay on HCC-2998 colon, in the assay with UACC-62 melanoma, in the assay on DU-145 prostate, in the assay with SF-268 CNS and in the assay with SK-MEL-28 melanoma was greater than 100 µM in each case. For the same molecule, the GI50 with IGROV1 ovarian, in the assay on NCI-H23 lung, with CCRF-CEM leukemia and with OVCAR-4 ovarian was greater than 100 µM each time. Also, the TGI in the assay on MDA-MB-231 breast, in the assay with HCC-2998 colon, in the assay with UACC-62 melanoma, in the assay with DU-145 prostate, with SF-268 CNS and with SK-MEL-28 melanoma was greater than 100 µM throughout. Further, the TGI in the assay on IGROV1 ovarian, in the assay with NCI-H23 lung, with CCRF-CEM leukemia and in the assay on OVCAR-4 ovarian was greater than 100 µM each time.
Regarding `COc1cc2c(c(O)c1C)C(=O)C(Cl)=CC2=O`, the TGI is 27.8 µM with MDA-MB-231 breast; 44.8 µM in the assay on HCC-2998 colon; 13.8 µM in the assay with UACC-62 melanoma; 13.3 µM in the assay with DU-145 prostate; 40 µM in the assay on SF-268 CNS; 35.1 µM in the assay on SK-MEL-28 melanoma. Further, the TGI with IGROV1 ovarian turned out to be 40.2 µM; in the assay with NCI-H23 lung, 25 µM; in the assay with CCRF-CEM leukemia, 16 µM; in the assay with OVCAR-4 ovarian it was 33.7 µM.
Consider `CC1(C)N=C(N)N=C(N)N1c1ccc(CCCCc2ccc(S(=O)(=O)F)cc2Cl)c(Cl)c1`, for which the TGI was found to be 82.3 µM in the assay with MDA-MB-231 breast; 67.1 µM with HCC-2998 colon; 46.9 µM in the assay with UACC-62 melanoma; 90.4 µM in the assay on DU-145 prostate; 29.3 µM in the assay on SF-268 CNS; 13.4 µM in the assay on SK-MEL-28 melanoma. Further, the TGI with IGROV1 ovarian is 106 µM; in the assay on NCI-H23 lung, 200 µM; in the assay with CCRF-CEM leukemia, 8.28 µM; in the assay on OVCAR-4 ovarian, greater than 468 µM.
Turning to `CCN1CCN(c2nc(NCCNc3ccnc4cc(Cl)ccc34)c3ccccc3n2)CC1`, the GI50 in the assay on MDA-MB-231 breast is 1.28 µM; with HCC-2998 colon, 1.69 µM; with UACC-62 melanoma, 1.41 µM; in the assay with DU-145 prostate, 2.17 µM; with SF-268 CNS, 2.51 µM; in the assay with SK-MEL-28 melanoma, 2.04 µM. The GI50 in the assay with IGROV1 ovarian was 1.62 µM; in the assay on NCI-H23 lung it was 2.77 µM; in the assay on CCRF-CEM leukemia, 0.759 µM; in the assay with OVCAR-4 ovarian, 1.78 µM. The TGI in the assay on MDA-MB-231 breast was determined as 2.88 µM; in the assay on HCC-2998 colon, 4.91 µM; in the assay on UACC-62 melanoma, 2.94 µM; in the assay on DU-145 prostate it was 9.14 µM; in the assay on SF-268 CNS, 13.3 µM; in the assay on SK-MEL-28 melanoma, 3.81 µM. The TGI with IGROV1 ovarian was 4.69 µM; in the assay on NCI-H23 lung it was 10.7 µM; in the assay on CCRF-CEM leukemia it was 7.59 µM; in the assay on OVCAR-4 ovarian it was 4.45 µM.
Take `O=C1c2ccccc2-c2c1c1cc3c(cc1c(=O)n2CCCCl)OCO3`: the GI50 is 24.7 µM with MDA-MB-231 breast; 24.4 µM with HCC-2998 colon; 30.5 µM with UACC-62 melanoma; greater than 100 µM in the assay on DU-145 prostate; 51.7 µM in the assay on SF-268 CNS; 19.2 µM in the assay on SK-MEL-28 melanoma. Also, the GI50 in the assay on NCI-H23 lung is 21.5 µM; in the assay on CCRF-CEM leukemia, 66.1 µM; in the assay on OVCAR-4 ovarian it was greater than 100 µM. The TGI in the assay with MDA-MB-231 breast is 75.3 µM; with HCC-2998 colon it was greater than 100 µM; with UACC-62 melanoma it was greater than 100 µM; in the assay on DU-145 prostate, greater than 100 µM; in the assay on SF-268 CNS it was greater than 100 µM; in the assay on SK-MEL-28 melanoma, greater than 100 µM. Besides, the results for the TGI with NCI-H23 lung, in the assay on CCRF-CEM leukemia and with OVCAR-4 ovarian were 87.3 µM, greater than 100 µM and greater than 100 µM, respectively.

(Values after PubChem BioAssay (NCI).)
